One experiment relates to Human venous whole blood. Put plainly: Human whole blood IFN-γ assay.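 Further: blood from healthy donors exposed to compound for 1 h before stimulation with anti-CD3 and anti-CD28 at 1 µg/mL each, IFN-γ quantified in supernatant by AlphaLISA.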 The following applies: human whole blood, read-out: INFg Whole Blood Normalized Agonist EC50. Type of experiment: cell-based.
The next experiment concerns the target T1, human DGKζ (Homo sapiens, UniProt Q13574).
T1 construct: TVMV protease cleavage site (C); Hexa-His (C); made in house; host or cells: Sf9 insect cells (baculovirus, Bac-to-Bac)
Put plainly: DGKζ LIPGLO assay (extruded liposome substrate), in vitro DGK inhibition. The following applies: read-out: DGKz LIPGLO IC50. Type of experiment: biochemical.

Another experiment addresses T2, human DGKα (Homo sapiens, UniProt P23743).
T2 construct: TVMV protease cleavage site (C); Hexa-His (C); made in house; host or cells: Sf9 insect cells (baculovirus, Bac-to-Bac)
As to the kind of experiment: DGKα LIPGLO assay (extruded liposome substrate), in vitro DGK inhibition. The settings on record: read-out: DGKa LIPGLO IC50. It is filed as biochemical.

Where [1] appears, read: Homo sapiens, 24 h, normalized to 3 μM reference compound with anti-CD3 plus anti-CD28 as 100% activation.
Where [2] appears, read: normalized to 3 μM reference compound with anti-CD3 plus anti-CD28 as 100% activation.
[3] abbreviates: anti-CD3 plus anti-CD28, 24 hours, 3 μM reference compound = 100% activation.
[4] abbreviates: Homo sapiens, 24 h, anti-CD3 plus anti-CD28, 24 hours, 3 μM reference compound = 100% activation.

Read-outs that look alike come from different tables or passages of the source.

T2 sequence (P23743 with tags, fused parts or gaps): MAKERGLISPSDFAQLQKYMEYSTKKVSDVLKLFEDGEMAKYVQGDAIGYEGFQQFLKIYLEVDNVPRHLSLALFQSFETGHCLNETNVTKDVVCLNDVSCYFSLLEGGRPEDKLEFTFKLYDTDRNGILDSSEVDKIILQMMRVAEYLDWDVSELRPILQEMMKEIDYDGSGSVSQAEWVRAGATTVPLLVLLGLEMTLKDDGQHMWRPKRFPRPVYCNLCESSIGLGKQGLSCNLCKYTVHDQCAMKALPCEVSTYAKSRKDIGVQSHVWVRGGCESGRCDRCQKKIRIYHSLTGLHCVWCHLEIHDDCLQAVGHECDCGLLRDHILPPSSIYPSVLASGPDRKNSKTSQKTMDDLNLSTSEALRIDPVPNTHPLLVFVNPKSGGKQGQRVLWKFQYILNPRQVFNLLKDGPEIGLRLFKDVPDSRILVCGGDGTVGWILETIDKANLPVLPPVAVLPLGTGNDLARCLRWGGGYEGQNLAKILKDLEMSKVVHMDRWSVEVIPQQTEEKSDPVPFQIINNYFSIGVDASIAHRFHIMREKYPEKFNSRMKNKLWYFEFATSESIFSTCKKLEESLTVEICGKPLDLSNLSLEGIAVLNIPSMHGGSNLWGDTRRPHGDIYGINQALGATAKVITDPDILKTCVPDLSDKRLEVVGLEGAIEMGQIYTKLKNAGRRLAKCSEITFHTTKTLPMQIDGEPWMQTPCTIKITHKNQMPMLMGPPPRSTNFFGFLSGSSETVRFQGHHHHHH
T1 sequence (Q13574 with tags, fused parts or gaps isoform Q13574-4): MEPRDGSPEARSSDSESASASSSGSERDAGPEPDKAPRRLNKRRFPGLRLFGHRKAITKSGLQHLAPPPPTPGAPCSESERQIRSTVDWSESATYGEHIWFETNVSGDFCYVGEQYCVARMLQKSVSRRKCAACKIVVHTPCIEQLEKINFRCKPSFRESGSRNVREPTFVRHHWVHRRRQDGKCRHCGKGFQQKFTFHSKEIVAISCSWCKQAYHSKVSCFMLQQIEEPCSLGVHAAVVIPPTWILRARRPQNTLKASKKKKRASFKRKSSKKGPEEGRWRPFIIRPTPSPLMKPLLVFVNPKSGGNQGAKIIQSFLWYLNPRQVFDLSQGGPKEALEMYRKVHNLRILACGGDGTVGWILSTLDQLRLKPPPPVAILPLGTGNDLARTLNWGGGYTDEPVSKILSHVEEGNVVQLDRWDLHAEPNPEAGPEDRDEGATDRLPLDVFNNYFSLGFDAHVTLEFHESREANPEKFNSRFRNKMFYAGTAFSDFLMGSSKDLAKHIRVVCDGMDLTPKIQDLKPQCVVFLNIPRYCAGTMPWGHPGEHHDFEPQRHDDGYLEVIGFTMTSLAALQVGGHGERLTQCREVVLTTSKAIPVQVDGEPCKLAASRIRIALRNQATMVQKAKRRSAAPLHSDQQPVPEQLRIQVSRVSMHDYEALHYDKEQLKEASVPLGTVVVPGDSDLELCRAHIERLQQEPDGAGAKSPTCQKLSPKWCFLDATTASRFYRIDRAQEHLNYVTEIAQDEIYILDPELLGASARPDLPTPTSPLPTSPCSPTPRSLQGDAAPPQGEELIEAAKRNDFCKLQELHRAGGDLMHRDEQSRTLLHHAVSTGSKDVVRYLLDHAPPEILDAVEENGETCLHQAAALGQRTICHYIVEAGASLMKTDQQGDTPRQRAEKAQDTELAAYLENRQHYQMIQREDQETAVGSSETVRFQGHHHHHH
Protocol for Human venous whole blood: Human Whole Blood IFN-γ Assay
Human venous whole blood (22.5 μL per well), obtained from healthy donors, was pre-treated with compounds for one hour at 37° C. in a humidified 95% air/5% CO2 incubator. The blood was stimulated with 2.5 μL anti-human CD3 and anti-CD28 mAb at a final concentration of 1 μg/mL each for 24 hours at 37° C. IFN-γ in the supernatants was measured using AlphLISA kit (Cat # AL217).

Broadly, the EC50 is the concentration that produces a half-maximal response. For orientation: IC50 means the concentration that inhibits the measured activity by half. In the case of `Cc1ccc(C(c2ccc(C)cn2)N2C[C@H](C)N(c3cc(=O)n(C)c4ccc(C#N)nc34)C[C@H]2C)cc1` (single isomer, unassigned) [Example 454], the EC50 with Human venous whole blood (setting [1]) is 470 nM. Further, the results for the IC50 on human DGKζ (liposome (LIPGLO) assay) and on human DGKα (liposome (LIPGLO) assay) were 540 nM and 230 nM, respectively.
For the compound `CC(c1ccc(OC(F)(F)F)cc1F)N1C[C@H](C)N(c2cc(=O)n(C)c3ccc(C#N)nc23)C[C@H]1C` (single isomer, unassigned) [Example 442], the EC50 in the experiment with Human venous whole blood (setting [2]) was 7500 nM. The IC50 is 1800 nM on human DGKζ (liposome (LIPGLO) assay) and 1400 nM on human DGKα (liposome (LIPGLO) assay).
Consider `CC[C@H]1CN(C(C)c2cc(F)cc(OC(F)(F)F)c2)[C@H](C)CN1c1cc(=O)n(C)c2ccc(C#N)nc12` (stereo partly drawn) [Example 1385], for which the EC50 in the experiment with Human venous whole blood (setting [2]) stood at 5300 nM. The results for the IC50 at human DGKζ (liposome (LIPGLO) assay) and at human DGKα (liposome (LIPGLO) assay) were 700 nM and 5900 nM, respectively.
As to `CC[C@H]1CN(C(c2ccc(F)cc2)c2ccc(C(F)(F)F)cn2)[C@H](CC)CN1c1cc(=O)n(C)c2ccc(C#N)nc12` (stereo partly drawn) [Example 1040], the EC50 with Human venous whole blood (setting [2]) amounted to 57 nM. In addition, the IC50 on human DGKζ (liposome (LIPGLO) assay) was found to be 59 nM; at human DGKα (liposome (LIPGLO) assay), 42 nM.
The corresponding values for `C[C@@H]1CN(c2cc(=O)n(C)c3ccc(C#N)nc23)[C@@H](C)CN1C(c1ccc(Cl)cc1)c1nc(C2CC2)no1` (single isomer, unassigned) [Example 1286] are 270 nM, 100 nM and 38 nM.
As to `COc1ncccc1C(c1ccc(F)cc1)N1CCN(c2c(C#N)c(=O)n(C)c3ccc(C#N)nc23)C[C@H]1C` (single isomer, unassigned) [Example 894], in the experiment with Human venous whole blood (setting [3]), the EC50 turned out to be 4000 nM. The IC50 on human DGKζ (DGKζ liposome (LIPGLO) assay) amounted to 680 nM; on human DGKα (DGKα liposome (LIPGLO) assay), 8600 nM.
Turning to `COc1ccc(C(C)N2C[C@H](C)N(c3c(C#N)c(=O)n(C)c4ccc(C#N)nc34)C[C@H]2C)nc1` (single isomer, unassigned) [Example 799], the half-maximal effective concentration (EC50) with Human venous whole blood (setting [3]) stood at 20000 nM. For the same compound, the IC50 came out at 9900 nM on human DGKζ (DGKζ liposome (LIPGLO) assay) and 860 nM at human DGKα (DGKα liposome (LIPGLO) assay).
Take `CC(c1ccc(OC(F)(F)F)cc1)N1C[C@H](C)N(c2cc(=O)n(C)c3ccc(C#N)nc23)C[C@H]1CC#N` (single isomer, unassigned) [Example 1412]: in the experiment on Human venous whole blood (setting [1]), the EC50 worked out at 1600 nM. In addition, the IC50 at human DGKζ (liposome (LIPGLO) assay) stood at 1700 nM; at human DGKα (liposome (LIPGLO) assay), 290 nM.
As for `C[C@@H]1CN(c2c(C#N)c(=O)n(C)c3ccc(C#N)nc23)[C@@H](C)CN1C(c1ccc(Cl)cc1)c1ccc(F)cn1` (single isomer, unassigned) [Example 829], the EC50 in the experiment on Human venous whole blood (setting [4]) amounted to 1200 nM. Further, the values for the IC50 at human DGKζ (DGKζ liposome (LIPGLO) assay) and on human DGKα (DGKα liposome (LIPGLO) assay) were 8000 nM and 5500 nM, respectively.
As to `CCC(c1ccc(OC(F)(F)F)cc1)N1C[C@H](C)N(c2cc(=O)n(C)c3ccc(C#N)nc23)C[C@H]1CC` (single isomer, unassigned) [Example 1199], the EC50 in the experiment with Human venous whole blood (setting [2]) was determined as 34 nM. In addition, the IC50 at human DGKζ (liposome (LIPGLO) assay) was 37 nM; at human DGKα (liposome (LIPGLO) assay) it was 20 nM.
Turning to `C[C@@H]1CN(c2c(C#N)c(=O)n(C)c3ccc(C#N)nc23)[C@@H](C)CN1C(c1ccccc1)c1cc(F)cc(F)c1` (single isomer, unassigned) [Example 813], the EC50 with Human venous whole blood (setting [3]) is 20000 nM. The results for the IC50 on human DGKζ (DGKζ liposome (LIPGLO) assay) and at human DGKα (DGKα liposome (LIPGLO) assay) were 3700 nM and 85000 nM, respectively.
Regarding `CC[C@H]1CN(C(c2ccc(F)cc2)c2ccc(Cl)cc2)[C@H](C)CN1c1cc(=O)n(C)c2ccc(C#N)nc12` (stereo partly drawn) [Example 1127], in the experiment on Human venous whole blood (setting [1]), the EC50 is 520 nM. Further, the IC50 is 2400 nM at human DGKζ (liposome (LIPGLO) assay) and 680 nM on human DGKα (liposome (LIPGLO) assay).
Take `C[C@@H]1CN(c2c(C#N)c(=O)n(C)c3ccc(C#N)nc23)[C@@H](C)CN1C(c1ccc(F)cc1)c1cccc(C(F)(F)F)n1` (single isomer, unassigned) [Example 844]: the EC50 in the experiment on Human venous whole blood (setting [4]) worked out at 2700 nM. For the same compound, the figures for the IC50 at human DGKζ (DGKζ liposome (LIPGLO) assay) and at human DGKα (DGKα liposome (LIPGLO) assay) were 5200 nM and 100000 nM, respectively.
As for `Cc1cc(C(C)N2C[C@H](C)N(c3c(C#N)c(=O)n(C)c4ccc(C#N)nc34)C[C@H]2C)no1` (single isomer, unassigned) [Example 803], the 50% effective concentration (EC50) in the experiment with Human venous whole blood (setting [4]) was determined as 20000 nM. Also, the half-maximal inhibitory concentration (IC50) on human DGKζ (DGKζ liposome (LIPGLO) assay) was 7000 nM; on human DGKα (DGKα liposome (LIPGLO) assay), 2000 nM.
`COC[C@@H]1CN(c2cc(=O)n(C)c3ccc(C#N)nc23)[C@@H](C)CN1C(C)c1ccc(F)cc1` (single isomer, unassigned) [Example 1160]: the half-maximal effective concentration (EC50) with Human venous whole blood (setting [1]) is 1100 nM. For the same compound, the IC50 came out at 1700 nM at human DGKζ (liposome (LIPGLO) assay) and 1500 nM at human DGKα (liposome (LIPGLO) assay).
The corresponding values for `Cc1noc(C)c1CN1C[C@H](C)N(c2cc(=O)n(C)c3ccc(C#N)nc23)C[C@H]1C` [Example 1426] are 20000 nM, 4000 nM and 33000 nM.
With `CC[C@H]1CN(C(C)c2ccc(OC(F)F)cc2)[C@H](C)CN1c1cc(=O)n(C)c2ccc(C#N)nc12` (single isomer, unassigned) [Example 1379], the concentration for a half-maximal effect (EC50) in the experiment on Human venous whole blood (setting [2]) turned out to be 510 nM. Moreover, the IC50 came to 160 nM at human DGKζ (liposome (LIPGLO) assay) and 8.8 nM at human DGKα (liposome (LIPGLO) assay).
Consider `C[C@@H]1CN(c2cc(=O)n(C)c3ccc(C#N)nc23)[C@@H](C)CN1C(CO)c1ccc(F)cc1` (single isomer, unassigned) [Example 557], for which, in the experiment on Human venous whole blood (setting [2]), the EC50 came to 1600 nM. The IC50 on human DGKζ (liposome (LIPGLO) assay) amounted to 5300 nM; on human DGKα (liposome (LIPGLO) assay) it was 500 nM.
Consider `CC(c1ccc(F)cc1F)N1CCN(c2c(C#N)c(=O)n(C)c3ccc(C#N)nc23)C[C@H]1C` (single isomer, unassigned) [Example 969], for which the EC50 with Human venous whole blood (setting [3]) came out at 1300 nM. The half-maximal inhibitory concentration (IC50) turned out to be 1200 nM on human DGKζ (DGKζ liposome (LIPGLO) assay) and 760 nM on human DGKα (DGKα liposome (LIPGLO) assay).
Consider `CC(c1cccc2ncccc12)N1C[C@H](C)N(c2cc(=O)n(C)c3ccc(C#N)nc23)C[C@H]1C` (single isomer, unassigned) [Example 638], for which, in the experiment with Human venous whole blood (setting [1]), the EC50 amounted to 20000 nM. Moreover, the values for the IC50 at human DGKζ (liposome (LIPGLO) assay) and at human DGKα (liposome (LIPGLO) assay) were 1800 nM and 110000 nM, respectively.
Turning to `C[C@@H]1CN(c2cc(=O)n(C)c3ccc(C#N)nc23)[C@@H](C)CN1C(c1ccc(F)cc1)c1cnn2ccccc12` (single isomer, unassigned) [Example 698], the concentration for a half-maximal effect (EC50) in the experiment on Human venous whole blood (setting [1]) was 1000 nM. Moreover, the figures for the IC50 at human DGKζ (liposome (LIPGLO) assay) and on human DGKα (liposome (LIPGLO) assay) were 400 nM and 1700 nM, respectively.
On to `C[C@@H]1CN(c2cc(=O)n(C)c3ccc(C#N)nc23)[C@@H](C)CN1C(c1ccc(F)cc1)c1cnn(C2CC2)c1` (single isomer, unassigned) [Example 725], for which, in the experiment with Human venous whole blood (setting [4]), the EC50 stood at 1500 nM. Moreover, the IC50 is 490 nM at human DGKζ (DGKζ liposome (LIPGLO) assay) and 550 nM on human DGKα (DGKα liposome (LIPGLO) assay).
For the compound `COC(=O)c1cccc(C(C)N2CCN(c3c(C#N)c(=O)n(C)c4ccc(C#N)nc34)C[C@H]2C)c1` (single isomer, unassigned) [Example 982], the EC50 with Human venous whole blood (setting [4]) was 20000 nM. Also, the 50% inhibitory concentration (IC50) at human DGKζ (DGKζ liposome (LIPGLO) assay) was 1700 nM; at human DGKα (DGKα liposome (LIPGLO) assay), 8100 nM.
Regarding `CCC(c1ccc(OC(F)(F)F)cc1F)N1C[C@H](C)N(c2cc(=O)n(C)c3ccc(C#N)nc23)C[C@H]1C` (single isomer, unassigned) [Example 441], the EC50 with Human venous whole blood (setting [2]) was determined as 7900 nM. The IC50 at human DGKζ (liposome (LIPGLO) assay) worked out at 2400 nM; at human DGKα (liposome (LIPGLO) assay), 1500 nM.
Turning to `Cc1ccc(C(C)N2C[C@H](C)N(c3c(C#N)c(=O)n(C)c4ccc(C#N)nc34)C[C@H]2C)cc1` (single isomer, unassigned) [Example 784], the EC50 with Human venous whole blood (setting [3]) worked out at 2000 nM. Moreover, the IC50 worked out at 2600 nM on human DGKζ (DGKζ liposome (LIPGLO) assay) and 1200 nM on human DGKα (DGKα liposome (LIPGLO) assay).
With `CC[C@H]1CN(C(c2ccc(F)cc2)c2ccc(C#N)cc2)[C@H](CC)CN1c1cc(=O)n(C)c2ccc(C#N)nc12` (stereo partly drawn) [Example 1035], the EC50 in the experiment with Human venous whole blood (setting [1]) is 290 nM. In addition, the 50% inhibitory concentration (IC50) amounted to 1100 nM at human DGKζ (liposome (LIPGLO) assay) and 370 nM at human DGKα (liposome (LIPGLO) assay).

Values taken from patent publication US10669272B2, “Substituted naphthyridinone compounds useful as T cell activators” (BRISTOL-MYERS SQUIBB COMPANY, priority 2018, dated 2020).
